# Measured values from article PMC11585353, “Metatranscriptomics-guided discovery and characterization of a polyphenol-metabolizing gut microbial enzyme” (Cell host & microbe, 2024).
# Tested on: T1, Gp Hcdh (Unk-9; G. pamelaeae HCA dehydroxylase)
# T1 construct: native untagged enzyme purified from G. pamelaeae 3C grown with HCA (ammonium sulfate, HIC, AEC, SEC); two subunits; catalytic subunit 770 aa; one Mo per protein (bis-MGD); with Hydrocaffeic acid dehydroxylase accessory subunit
# Test: continuous spectrophotometric assay, methyl viologen oxidation at […] nm, Michaelis-Menten fit of initial rates
# Type: biochemical, Gordonibacter pamelaeae
# Details: 100 nM enzyme, anaerobic, 50 mM MOPS pH 7.0, 300 mM NaCl, 200 uM methyl viologen, 100 uM sodium dithionite, HCA 0.0625-4 mM
smiles,measurement,value
"O=C(O)CCc1ccc(O)c(O)c1 [HCA, 3,4-dihydroxyhydrocinnamic acid]",Km,240 µM
